Measurements as given in the METLIN SMRT retention time set (Domingo-Almenara et al. 2019).

Assay: gradient 5% acetonitrile 3 min, to 50% in 2 min, to 85% in 15 min, held 3 min, 100 µL/min
Settings: column: Zorbax Extend-C18 2.1 x 50 mm; eluents: water / acetonitrile, 0.1% formic acid
How it was run: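 Retention times of pure standards were taken from adduct peaks that were selected by computer and manually inspected. Over 3 months, mixtures of ~100 molecules were run by HPLC–quadrupole time-of-flight mass spectrometry in positive and negative ionization mode. The Zorbax Extend-C18 column (2.1 × 50 mm, 1.8 μm) ran at 100 μL/min in water and acetonitrile, each containing 0.1% formic acid, with 40 μL dead volume and 900 μL dwell volume.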

Row | Structure (SMILES) | RP-LC retention time [s]
1 | CCCN1C(=O)COc2ccc(-c3noc(-c4cccc(NC(=O)c5ccco5)c4)n3)cc21 | 1100
2 | O=C(NC1CC1)C1CCCN(c2ncnc3c2nc2n3CCCCC2)C1 (stereo not given) | 622
3 | Cc1ccc(S(=O)(=O)N2CCCC2)cc1-c1nnc(-c2ccc(F)cc2)o1 | 1040
4 | Cc1c(Cl)ccc2c(=O)c3c([nH]c12)CCN(CC(=O)Nc1ccc2c(c1)OCCO2)C3 | 646
5 | CCCOc1nn(CCC)cc1C(=O)Nc1nccs1 | 865
6 | O=C(Cn1nc2c(N3CCOCC3)nccn2c1=O)Nc1ccc(Br)cc1F | 779
7 | CN(Cc1ccsc1)C(=O)Nc1ccc(F)cc1 | 839
8 | Cc1nc(Oc2ccccc2)cc(N2CCN(C(=O)c3c(F)cccc3F)CC2)n1 | 785
9 | O=C(c1ccsc1)N1CCN(c2ccccn2)CC1 | 521
10 | COC(=O)c1ccccc1NC(=O)Cn1cccc(-c2nc(-c3ccccc3)no2)c1=O | 629
11 | CCNC(=O)Nc1ccc2c(c1)CN(S(=O)(=O)c1cn(C)cn1)CCO2 | 625
12 | CSc1ccc(-c2noc(Cn3c(=O)n(-c4ccccc4F)c(=O)c4sccc43)n2)cc1 | 1040
13 | CCOc1ccc(S(=O)(=O)N2CCCC(C(=O)NCCCOC)C2)cc1C (stereo not given) | 847
14 | CCOC(=O)Nc1ccccc1NC(=O)OCC | 717
15 | Cc1ccc(S(=O)(=O)Nc2ccc(-c3cn4cccc(C)c4n3)cc2)cc1C | 625
16 | O=C(NCc1ccco1)c1cccc2c1CCN2C(=O)c1ccc(F)cc1 | 836
17 | COc1ccc(OC)c(CNC(=O)c2cn3cccc(C)c3n2)c1 | 730
18 | CCOc1ccc(S(=O)(=O)N2CCC3(CCC(CN4CCN(C)CC4)O3)CC2)cc1 (stereo not given) | 611
19 | CCC(C)(C)NS(=O)(=O)c1cc(-c2nc(C)cs2)n(C)c1C | 1010
20 | CC1CN(C(=O)C2CCN(S(=O)(=O)c3cccnc3)CC2)c2ccccc2O1 (stereo not given) | 825
21 | COC(=O)c1cncc(C)c1 | 662
22 | CCn1nnc2cc(-c3noc(C4CC(=O)N(c5cccc(Cl)c5)C4)n3)ccc21 (stereo not given) | 809
23 | CC(C)C(=O)N1CCc2cc(C(=O)N(C)C)ccc21 | 678

Row | Structure (SMILES) | RP-LC retention time [s]
24 | COc1ccc(C2=NC3(CCN(C)CC3)NC(c3cccc(OC)c3O)C2)cc1 (stereo not given) | 583
25 | CNCCc1cnc(CCC(c2ccccc2)c2ccccc2)[nH]1 | 608
26 | N#CCn1cccc(S(=O)(=O)N2CCCCCC2)c1=O | 737
27 | CCCNC(=O)C1CCCN(c2nc3ncn(CC(=O)Nc4ccc(C)cc4C)c(=O)c3s2)C1 (stereo not given) | 703
28 | Cc1cc(Cl)ccc1NC(=O)c1ncn2c1C(=O)N(C1CC1)C(C)(C(=O)NC1CCCC1)C2 (stereo not given) | 879
29 | Cc1ccc2nc(-c3cc(Br)ccc3F)c(Nc3ccccc3C)n2c1 | 793
30 | Cc1nn(-c2ccc(Cl)cc2)c(C)c1S(=O)(=O)N1CCC(C(=O)NC2CC2)CC1 | 835
31 | O=C(CCS(=O)(=O)c1ccc(Cl)cc1)Nc1nccs1 | 679
32 | Cc1ccc(NC(=O)N2CC(c3nc(CCOCC4CCCC4)no3)C2)cc1C | 1060
33 | O=S(=O)(c1cccc(F)c1)N1CC(F)(F)C[C@H]1CN1CCc2ccccc2C1 | 733
34 | CCOc1cc(C(=O)Nc2nnc(-c3ccc(Cl)s3)o2)cc(OCC)c1OCC | 986
35 | CCOc1ccc(-c2nc3ncccn3c2NCc2ccccc2)cc1OC | 697
36 | Cc1ccn2c(NC(=O)c3cccs3)c(-c3ccccc3)nc2c1 | 633
37 | COC(=O)c1ccc2c(=O)n(-c3cc(C)cc(C)c3)c(N3CCCC3)nc2c1 | 1240
38 | c1ccc(-c2noc(C3CCN(Cc4ccco4)C3)n2)cc1 (stereo not given) | 644
39 | Cc1nnc(-c2ccc3ccn(CC(=O)N4CCN(C(=O)c5ccco5)CC4)c3c2)o1 | 674
40 | O=S(=O)(c1ccc(-c2nnc(C3CC3)o2)o1)N1CCN(c2ccccn2)CC1 | 632
41 | Cc1cccc2c(C(N)=O)cc(-c3ccccc3)nc12 | 904
42 | CCN1C(=O)COc2ccc(-c3noc(C4(c5ccccc5)CC4)n3)cc21 | 991
43 | O=S(=O)(c1ccc(Cl)c(-c2nnc(-c3ccccc3)o2)c1)N(CCO)CCO | 739
44 | CCn1cc(CCN2CCN(S(=O)(=O)c3ccc4c(c3)CCC4)CC2)c2cccnc21 | 702
45 | Cc1ccc(C)c(NC(=O)Nc2cccc(-c3cn4cccnc4n3)c2)c1 | 696
46 | CC(C)c1ccc(CN2C[C@@H]3C(=O)N(CCc4ccccc4)C(=O)[C@@H]3C2)cc1 | 772

Row | Structure (SMILES) | RP-LC retention time [s]
47 | O=C(NCCc1cccs1)c1cccc(N2CCNC(c3ccccc3)C2)n1 (stereo not given) | 656
48 | O=C(Nc1cc(-c2ccccn2)no1)c1cccc(C(F)(F)F)c1 | 916
49 | CCCCN(CC)C(=O)C1CCCN(c2ccc(-c3ccc(C)cc3)nn2)C1 (stereo not given) | 796
50 | Cc1ccc(Cn2c(=O)n(CCNC(=O)C3CCCO3)c3ncccc32)cc1 (stereo not given) | 726
51 | CCc1ccc(-c2cc3c(=O)n(Cc4noc(CN5CCCC(C)C5)n4)ccn3n2)cc1 (stereo not given) | 726
52 | CCOc1ccc(-n2nnc(C(=O)O)c2COC)cc1 | 734
53 | COc1ccc(NC(=O)N2CCC(c3nc(C(=O)N(C)C)c(C)o3)CC2)cc1 | 676
54 | CC(C)(C)NC(=O)N1CCC(CNS(=O)(=O)c2ccc(Br)s2)CC1 | 818
55 | Cc1cccc(NC(=O)Cn2c(C)nc3c(sc4nc(-c5ccccc5)ccc43)c2=O)c1C | 1170
56 | O=C(NCCc1ccccc1)C1c2ccccc2C(=O)N1Cc1ccc2c(c1)OCO2 (stereo not given) | 865
57 | Cc1ccc(F)c(NS(=O)(=O)c2cc3c(s2)CCN(C(=O)C2CCC2)C3)c1 | 891
58 | COc1ccc(-c2cc3c4nnc(CCC(=O)NCc5ccco5)n4ccn3n2)cc1 | 665
59 | CCc1ccccc1N1C(=O)CN(S(C)(=O)=O)CC1(C)C(=O)NCc1ccccc1 (stereo not given) | 804
60 | CCOC(=O)C(C)Sc1ccc(NC(=O)c2ccco2)nn1 (stereo not given) | 759
61 | COC(=O)c1ccsc1NC(=O)C1COCC(=O)N1Cc1ccccc1 (stereo not given) | 786
62 | Cc1nnc(-c2ccc3ccn(CC(=O)NCc4ccc(F)cc4)c3c2)o1 | 760
63 | Brc1cccc(-c2nnc(Cc3nc(-c4ccccc4)no3)o2)c1 | 1080
64 | CCNc1cc(-n2cccn2)ncn1 | 666
65 | CNC(=O)[C@@H]1C[C@H](Oc2ccccc2)CN1C(=O)COc1ccccc1 | 603
66 | CNS(=O)(=O)c1ccc(Cl)c(-c2nnc(-c3ccc(OC)cc3)o2)c1 | 883
67 | CC(C)(C)C(=O)N1CCC(C(=O)Nc2ccc(S(=O)(=O)N3CCCC3)cc2)CC1 | 792
68 | COc1ccc(NC(=O)CCNc2cnc3cnccn23)c(C)c1 | 576
69 | O=C(Nc1ccccc1F)Nc1c(-c2ccccc2)nc2ccccn12 | 666

Row | Structure (SMILES) | RP-LC retention time [s]
70 | Cc1ccc(-n2nc(N3CCN(C(=O)c4ccc(Br)o4)CC3)ccc2=O)cc1C | 875
71 | O=C(Cn1c(C(F)(F)F)nc2ccccc21)NCc1ccc2c(c1)OCCCO2 | 804
72 | O=C(c1csc(C(=O)N2CCCC2)n1)N1CCN(Cc2ccccc2)CC1 | 603
73 | O=C(C1=CN(c2cccc(F)c2)c2cc(F)ccc2S1(=O)=O)N1CCOCC1 | 755
74 | CCc1cccc(C)c1NC(=O)Cn1nc2c3ccccc3ncn2c1=O | 705
75 | CN1c2cc(C(=O)N3CCN(c4ccccc4F)CC3)ccc2C(=O)N2CCCCC21 (stereo not given) | 877
76 | CCOc1cc(=O)n2c(c1C(=O)Nc1ccc(C(N)=O)cc1)CCCC2 | 584
77 | COc1ccc(OC)c(NC(=O)Cn2cccc2-c2nc(-c3ccc4c(c3)OCO4)no2)c1 | 1010
78 | CC(Oc1ccc(=O)n(-c2ccc(F)cc2)n1)C(=O)Nc1ccc(F)c(F)c1 (stereo not given) | 816
79 | Cc1ccc(C)c(S(=O)(=O)N2CCC3(CC2)NCCN=C3NCc2ccccc2F)c1 | 757
80 | Cc1nccn1Cc1nc(-c2ccc(F)c(Br)c2)no1 | 668
81 | Cc1ccc(CNC(=O)C(C)n2c3ccccc3c3cnn(C)c(=O)c32)o1 (stereo not given) | 882
82 | COc1ccc2c(c1)C1(CCN(S(=O)(=O)c3ccc(Br)cc3)C1)C(=O)N2C (stereo not given) | 986
83 | CCCN(CC1CCOC1)C(=O)NCc1ccc(F)cc1 (stereo not given) | 758
84 | C=CCn1c(C)c(CC(=O)N2CCCC2)c(=O)n2nc(-c3ccc(C)cc3)nc12 | 789
85 | O=C1COc2ccc(S(=O)(=O)N3CCC(C(=O)Nc4cccc(Br)c4)CC3)cc2N1 | 859
86 | O=C(NCc1ccccc1Cl)C1CCN(C(=O)c2ncn3c2COC(c2ccccc2)C3)CC1 (stereo not given) | 786
87 | CC1=C(c2cccc(Cl)c2)S(=O)(=O)N=C1N1CCCN(C(=O)c2ccsc2)CC1 | 851
88 | COc1ccc(OCc2nc(C3CN(C(=O)C4(c5ccccc5)CC4)C3)no2)cc1 | 904
89 | Cc1nc(C)c(C(=O)N2CCC(c3noc(-c4cnccn4)n3)C2)s1 (stereo not given) | 632
90 | COc1ccc2c(CCNC(=O)Nc3ccccc3)c[nH]c2c1 | 791
